Measurements: US10111831B2, “Chewable vehicle for mouth absorption” (TECHNOLOGIES KHLOROS INC., priority 2011, dated 2018)

Experiments:
[1] = Liberation of riboflavin from functional gel, passive vs artificial mastication; type: physicochemical; conditions: Khlôros functional gel, 0.9% riboflavin, 10 ml H2O/gel, after 60 seconds, detection at 445 nm
Description: • Material: • Khlôros functional gel (see examples I and II); • 0.9% Riboflavin; • Reactional media: 10 ml of H2O/gel; • Passive liberation of active ingredient (Riboflavin): no treatment on the gel; • Artificial mastication (active liberation): mimic the action of mastication →compression and soft shearing;
Detection of the liberation of riboflavin and conversion in mM by the spectroscopic evaluation at 445 nm.

[2] = Release of yohimbine from chewing gum masticated in water or artificial saliva; type: physicochemical; conditions: gum with Corynanthe yohimbe bark extract (8% yohimbine), artificially masticated 120 seconds in 10 ml, chromatography
Description: • Chewing gums are prepared following example xx, containing a bark extract of Corynanthe yohimbe (containing 8% of yohimbine); • Gums are artificially masticated for 120 seconds in 10 ml of water or artificial saliva; • The quantity of released yohimbine is analysed by chromatography.

liberation of riboflavin after artificial mastication compared to passive liberation [1] | quantity of yohimbine released, masticated in saliva versus water [2] | SMILES
23 times | – | Cc1cc2nc3c(=O)[nH]c(=O)nc-3n(C[C@H](O)[C@H](O)[C@H](O)CO)c2cc1C [riboflavin, Riboflavin]
– | more than 5 time | COC(=O)[C@@H]1[C@H]2C[C@H]3c4[nH]c5ccccc5c4CCN3C[C@@H]2CC[C@@H]1O [yohimbine]
